In patent US9302999B2, “Substituted triazoles as herbicides” (E. I. DU PONT DE NEMOURS AND COMPANY, priority 2012, dated 2016):

Experiments:
[1] = test system: Barnyardgrass; experiment: Test C postemergence: barnyardgrass; type: in vivo, Echinochloa crus-galli; details: 125 g ai/ha, scale 0 to 100, 0 no effect, 100 complete control
Text: Seeds of plant species selected from blackgrass (Alopecurus myosuroides), bromegrass, downy (downy bromegrass, Bromus tectorum), foxtail, green (green foxtail, Setaria viridis), ryegrass, Italian (Italian ryegrass, Lolium multiflorum), winter wheat (Triticum aestivum), wild oat (Avena fatua), galium (catchweed bedstraw, Galium aparine), bermudagrass (Cynodon dactylon), surinam grass (Brachiaria decumbens), cocklebur (common cocklebur, Xanthium strumarium), corn (Zea mays), large crabgrass (Digitaria sanguinalis), woolly cupgrass (Eriochloa villosa), foxtail, giant (giant foxtail, Setaria faberii), goosegrass (Eleusine indica), johnsongrass (Sorghum halepense), kochia (Kochia scoparia), lambsquarters (Chenopodium album), morningglory (Ipomoea coccinea), nightshade (eastern black nightshade, Solanum ptycanthum), nutsedge, yellow (yellow nutsedge, Cyperus esculentus), pigweed (Amaranthus retroflexus), ragweed (common ragweed, Ambrosia elation), soybean (Glycine max), common (oilseed) sunflower (Helianthus annuus), Russian thistle (Salsola kali) and velvetleaf (Abutilon theophrasti) were planted into a blend of loam soil and sand and treated preemergence with test chemicals formulated in a non-phytotoxic solvent mixture which included a surfactant.
At the same time, plants selected from these crop and weed species and also barley (winter barley, Hordeum vulgare), canarygrass (Phalaris minor), chickweed (common chickweed, Stellaria media) windgrass (Apera spica-venti) and deadnettle (henbit deadnettle, Lamium amplexicaule) were planted in pots containing Redi-Earth® planting medium (Scotts Company, 14111 Scottslawn Road, Marysville, Ohio 43041) comprising spaghnum peat moss, vermiculite, wetting agent and starter nutrients and treated with postemergence applications of test chemicals formulated in the same manner. Plants ranged in height from 2 to 18 cm (1- to 4-leaf stage) for postemergence treatments.
Treated plants and controls were maintained in a greenhouse for 13 to 15 days, after which time all species were compared to controls and visually evaluated. Plant response ratings, summarized in Table C, are based on a scale of 0 to 100 where 0 is no effect and 100 is complete control. A dash (-) response means no test result.

[2] = test system: barley, winter (winter barley, Hordeum vulgare); experiment: Test D pre-/postemergence: barley, winter; type: in vivo
How it was run: (§1)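 Visual 0–100 rating versus untreated controls (0 no effect, 100 complete control), taken 14 to 21 days after treatment in a controlled growth environment. Preemergence: silt loam soil. Postemergence: peat moss/vermiculite medium, plants 2 to 18 cm, 1- to 4-leaf stage. Solvent mixture with surfactant.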

[3] = test system: windgrass (Apera spica-venti); experiment: Test D pre-/postemergence: windgrass; type: in vivo
How it was run: as §1

[4] = test system: lambsquarters (Chenopodium album); experiment: Test D pre-/postemergence: lambsquarters; type: in vivo
How it was run: as §1

[5] = test system: bermudagrass (Cynodon dactylon); experiment: Test C pre-/postemergence: bermudagrass; type: in vivo
How it was run: (§2)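 Preemergence on seeds in loam/sand, postemergence on 2–18 cm (1–4-leaf) plants in peat-based medium; compounds in non-phytotoxic solvent with surfactant. After 13–15 days in greenhouse, visual rating versus controls, 0 (no effect) to 100 (complete control).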

[6] = test system: common (oilseed) sunflower (Helianthus annuus); experiment: Test C pre-/postemergence: sunflower; type: in vivo; details: Preemergence
How it was run: as §2

[7] = test system: woolly cupgrass (Eriochloa villosa); experiment: Test C pre-/postemergence: woolly cupgrass; type: in vivo
How it was run: as §2

[8] = Postemergence, 31 g ai/ha, scale 0 to 100 (0 no effect, 100 complete control)
[9] = Postemergence, 62 g ai/ha, scale 0 to 100 (0 no effect, 100 complete control)
[10] = Postemergence, 125 g ai/ha, scale 0 to 100, 0 no effect, 100 complete control
[11] = Postemergence, 16 g ai/ha, scale 0 to 100
[12] = Preemergence, 16 g ai/ha, scale 0 to 100, 0 no effect, 100 complete control
[13] = Preemergence, 31 g ai/ha, scale 0 to 100, 0 no effect, 100 complete control
[14] = Preemergence, 62 g ai/ha, scale 0 to 100
[15] = Preemergence, 125 g ai/ha, scale 0 to 100
[16] = Postemergence, 31 g ai/ha, scale 0 to 100
[17] = Postemergence, 250 g ai/ha, scale 0 to 100
[18] = Preemergence, 31 g ai/ha, scale of 0 to 100, 0 is no effect, 100 is complete control
[19] = Preemergence, 125 g ai/ha, scale 0 to 100, 0 no effect, 100 complete control
[20] = Preemergence, 250 g ai/ha, scale 0 to 100, 0 no effect, 100 complete control
[21] = Postemergence, 250 g ai/ha, scale 0 to 100 (0 no effect, 100 complete control)
[22] = Preemergence, 250 g ai/ha, scale 0 to 100

CCCc1nn(-c2ccc(C(F)(F)F)cc2)nc1Oc1ccnc(C(F)(F)F)c1 [Compound 170]
Plant response rating, Barnyardgrass [1]: 85

CCc1nn(-c2ccc(C(F)(F)F)c(F)c2)nc1Oc1ccnc(C(F)(F)F)c1 [Compound 183]
Plant response rating, Barnyardgrass [1]: 80

CCc1nn(-c2ccc(F)c(F)c2)nc1Oc1ccnc(C(F)(F)F)c1 [Compound 171]
Plant response rating, Barnyardgrass [1]: 60

CCOc1nn(-c2ccc(C(F)(F)F)cc2)nc1Cc1ccnc(C(F)(F)F)c1 [Compound 164, 4-[[5-ethoxy-2-[4-(trifluoromethyl)phenyl]-2H-1,2,3-triazol-4-yl]methyl]-2-(trifluoromethyl)pyridine]
Plant response rating, Barnyardgrass [1]: 10

CCc1nn(-c2ccc(C(F)(F)F)cc2)nc1Oc1ccnc(C(F)(F)F)c1 [Compound 169]
Plant response rating, Barnyardgrass [1]: 75

CCCc1nn(-c2ccc(F)cc2F)nc1Oc1ccnc(C(F)(F)F)c1 [Compound 179]
Plant response rating, Barnyardgrass [1]: 65

CCCc1nn(-c2ccc(F)c(F)c2)nc1Oc1ccnc(C(F)(F)F)c1 [Compound 172]
Plant response rating, Barnyardgrass [1]: 85

CCCc1nn(-c2ccc(F)cc2)nc1Oc1ccnc(C(F)(F)F)c1 [Compound 168]
Plant response rating, Barnyardgrass [1]: 90

FCc1nn(-c2ccc(F)cc2)nc1Oc1ccnc(C(F)(F)F)c1 [Compound 160]
Plant response rating, Barnyardgrass [1]: 35

CCc1nn(-c2ccc(F)cc2)nc1Cc1ccnc(C(F)(F)F)c1 [Compound 154]
Plant response rating, Barnyardgrass [1]: 25

CCc1nn(-c2ccc(C(F)(F)F)cc2)nc1Cc1ccnc(C(F)(F)F)c1 [Compound 155]
Plant response rating: Barley, Winter [2, 8]: 20
Plant response rating: Barley, Winter [2, 9]: 25
Plant response rating: Barley, Winter [2, 10]: 35
Plant response rating, Barley, Winter [2, 11]: 15
Plant response rating, Barley, Winter [2, 12]: 5
Plant response rating, Barley, Winter [2, 13]: 0
Plant response rating, Barley, Winter [2, 14]: 5
Plant response rating, Barley, Winter [2, 15]: 10
Plant response rating, Barnyardgrass [1]: 55
Plant response rating: Windgrass [3, 9]: 80
Plant response rating: Windgrass [3, 10]: 95
Plant response rating, Windgrass [3, 11]: 20
Plant response rating, Windgrass [3, 16]: 70
Plant response rating, Windgrass [3, 12]: 5
Plant response rating, Windgrass [3, 13]: 10
Plant response rating, Windgrass [3, 14]: 85
Plant response rating, Windgrass [3, 15]: 100
Plant response rating: Lambsquarters [4, 8]: 95
Plant response rating: Lambsquarters [4, 9]: 90
Plant response rating: Lambsquarters [4, 10]: 95
Plant response rating, Lambsquarters [4, 11]: 95
Plant response rating, Lambsquarters [4, 12]: 20
Plant response rating, Lambsquarters [4, 13]: 55
Plant response rating, Lambsquarters [4, 14]: 90
Plant response rating, Lambsquarters [4, 15]: 90

CCOc1nn(-c2ccc(Cl)cc2)nc1Cc1ccnc(C(F)(F)F)c1 [Compound 188]
Plant response rating, Barnyardgrass [1]: 98

Cc1nn(-c2ccc(F)c(C(F)(F)F)c2)nc1Cc1ccnc(C(F)(F)F)c1 [Compound 156]
Plant response rating: Barley, Winter [2, 8]: 20
Plant response rating: Barley, Winter [2, 9]: 25
Plant response rating: Barley, Winter [2, 10]: 30
Plant response rating, Barley, Winter [2, 11]: 10
Plant response rating, Barley, Winter [2, 12]: 5
Plant response rating, Barley, Winter [2, 13]: 5
Plant response rating, Barley, Winter [2, 14]: 10
Plant response rating, Barley, Winter [2, 15]: 15
Plant response rating, Barnyardgrass [1]: 40
Plant response rating: Windgrass [3, 9]: 70
Plant response rating: Windgrass [3, 10]: 80
Plant response rating, Windgrass [3, 11]: 25
Plant response rating, Windgrass [3, 16]: 50
Plant response rating, Windgrass [3, 12]: 0
Plant response rating, Windgrass [3, 13]: 10
Plant response rating, Windgrass [3, 14]: 85
Plant response rating, Windgrass [3, 15]: 100
Plant response rating: Lambsquarters [4, 8]: 90
Plant response rating: Lambsquarters [4, 9]: 85
Plant response rating: Lambsquarters [4, 10]: 95
Plant response rating, Lambsquarters [4, 11]: 85
Plant response rating, Lambsquarters [4, 12]: 25
Plant response rating, Lambsquarters [4, 13]: 30
Plant response rating, Lambsquarters [4, 14]: 85
Plant response rating, Lambsquarters [4, 15]: 100

Cc1nn(-c2ccc(C(F)(F)F)cn2)nc1Cc1cccc(C(F)(F)F)c1 [Compound 106]
Plant response rating, Bermudagrass [5, 8]: 40
Plant response rating, Bermudagrass [5, 9]: 40
Plant response rating, Bermudagrass [5, 10]: 55
Plant response rating, Bermudagrass [5, 17]: 80
Plant response rating, Bermudagrass [5, 18]: 100
Plant response rating, Bermudagrass ([5]; Preemergence, 62 g ai/ha, scale 0 to 100, 0 no effect, 100 complete control): 100
Plant response rating, Bermudagrass [5, 19]: 100
Plant response rating, Bermudagrass [5, 20]: 100
Plant response rating, Sunflower ([6]; 62 g ai/ha, scale of 0 to 100, 0 is no effect, 100 is complete control): 0
Plant response rating, Sunflower ([6]; 125 g ai/ha, scale 0 to 100, 0 no effect, 100 complete control): 0
Plant response rating, Sunflower ([6]; 250 g ai/ha, scale 0 to 100, 0 no effect, 100 complete control): 0
Plant response rating: Barley, Winter [2, 8]: 5
Plant response rating: Barley, Winter [2, 9]: 5
Plant response rating: Barley, Winter [2, 10]: 5
Plant response rating: Barley, Winter [2, 21]: 10
Plant response rating, Barley, Winter [2, 11]: 0
Plant response rating, Barley, Winter [2, 13]: 0
Plant response rating, Barley, Winter [2, 14]: 0
Plant response rating, Barley, Winter [2, 15]: 0
Plant response rating, Barley, Winter [2, 22]: 20
Plant response rating, Cupgrass, Woolly [7, 8]: 5
Plant response rating, Cupgrass, Woolly [7, 9]: 45
Plant response rating, Cupgrass, Woolly [7, 10]: 45
Plant response rating, Cupgrass, Woolly [7, 17]: 50
Plant response rating, Cupgrass, Woolly [7, 18]: 5
Plant response rating, Cupgrass, Woolly ([7]; Preemergence, 62 g ai/ha, scale of 0 to 100, 0 is no effect, 100 is complete control): 60
Plant response rating, Cupgrass, Woolly [7, 19]: 80
Plant response rating, Cupgrass, Woolly [7, 20]: 90
Plant response rating: Windgrass [3, 8]: 10
Plant response rating: Windgrass [3, 9]: 25
Plant response rating: Windgrass [3, 10]: 35
Plant response rating: Windgrass [3, 21]: 50
Plant response rating, Windgrass [3, 11]: 5
Plant response rating, Windgrass [3, 13]: 5
Plant response rating, Windgrass [3, 14]: 5
Plant response rating, Windgrass [3, 15]: 25
Plant response rating, Windgrass [3, 22]: 80
Plant response rating: Lambsquarters [4, 8]: 30
Plant response rating: Lambsquarters [4, 9]: 30
Plant response rating: Lambsquarters [4, 10]: 50
Plant response rating: Lambsquarters [4, 21]: 90
Plant response rating, Lambsquarters [4, 11]: 20
Plant response rating, Lambsquarters [4, 13]: 40
Plant response rating, Lambsquarters [4, 14]: 40
Plant response rating, Lambsquarters [4, 15]: 40
Plant response rating, Lambsquarters [4, 22]: 40
